Data as given in ChEMBL document CHEMBL1147527, “Parallel synthesis of DAPT derivatives and their gamma-secretase-inhibitory activity” (Bioorg Med Chem Lett, 2004).
Active and inactive are the calls of the source. The calls are words filed in the database; no cut-off is given here.

Experiments:
[1] = molecular target: T1, Gamma-secretase subunit PEN-2 (Homo sapiens, UniProt Q9NZ42); assay: Inhibitory activity against gamma-secretase at concentration of 10 uM; not active
[2] = molecular target: Gamma-secretase (Homo sapiens) (UniProt Q96BI3+Q9NZ42+Q8WW43+P49768+Q92542+P49810); assay: (§1) Inhibitory activity against gamma-secretase relative to DAPT; type: protein-complex assay
[3] = molecular target: T1, Gamma-secretase subunit PEN-2; assay: Inhibitory activity against gamma-secretase
[4] = molecular target: T1, Gamma-secretase subunit PEN-2; assay: as §1

T1 sequence (Q9NZ42 whole entry): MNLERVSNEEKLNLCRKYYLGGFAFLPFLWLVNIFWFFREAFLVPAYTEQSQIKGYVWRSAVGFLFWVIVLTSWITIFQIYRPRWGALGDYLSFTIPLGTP

| SMILES | Relative activity [2] | other results |
| --- | --- | --- |
| C[C@H](NC(=O)Cc1ccc(O)cc1)C(=O)N[C@@H](Cc1ccccc1)C(=O)OC(C)(C)C |  | Activity [1]: inactive |
| COc1ccccc1CNC(=O)[C@H](Cc1ccccc1)NC(=O)[C@H](C)NC(=O)Cc1cc(F)cc(F)c1 | 0.2 |  |
| C[C@H](NC(=O)Cc1cc(F)cc(F)c1)C(=O)N[C@@H](Cc1ccccc1)C(=O)OC(C)(C)C |  | IC50 [3]: 50 nM; Relative activity [4]: 1 |
| C[C@H](NC(=O)Cc1cc(F)cc(F)c1)C(=O)N[C@@H](Cc1ccccc1)C(=O)NCc1ccccc1 |  | Relative activity [4]: 1 |
| C[C@H](NC(=O)Cc1cc(F)cc(F)c1)C(=O)N[C@@H](Cc1ccccc1)C(=O)NCc1ccc(C(=O)c2ccccc2)cc1 | 30 |  |
| C[C@H](NC(=O)Cc1ccccc1O)C(=O)N[C@@H](Cc1ccccc1)C(=O)OC(C)(C)C |  | Activity [1]: inactive |
| C[C@H](NC(=O)Cc1cccc(O)c1)C(=O)N[C@@H](Cc1ccccc1)C(=O)OC(C)(C)C |  | Activity [1]: inactive |
| C[C@H](NC(=O)Cc1ccccc1Br)C(=O)N[C@@H](Cc1ccccc1)C(=O)OC(C)(C)C |  | Activity [1]: inactive |
| COc1cccc(CNC(=O)[C@H](Cc2ccccc2)NC(=O)[C@H](C)NC(=O)Cc2cc(F)cc(F)c2)c1 | 0.1 |  |
| C[C@H](NC(=O)Cc1cc(F)cc(F)c1)C(=O)N[C@@H](Cc1ccccc1)C(=O)NC(c1ccccc1)c1ccccc1 |  | Relative activity [4]: 1 |
| C[C@H](NC(=O)Cc1ccc(Br)cc1)C(=O)N[C@@H](Cc1ccccc1)C(=O)OC(C)(C)C |  | Activity [1]: inactive |
| CCCCNC(=O)[C@H](Cc1ccccc1)NC(=O)[C@H](C)NC(=O)Cc1cc(F)cc(F)c1 |  | Relative activity [4]: 0.3 |
| C[C@H](NC(=O)Cc1cccc(Br)c1)C(=O)N[C@@H](Cc1ccccc1)C(=O)OC(C)(C)C |  | Activity [1]: inactive |
| C[C@H](NC(=O)Cc1cc(F)cc(F)c1)C(=O)N[C@@H](Cc1ccccc1)C(=O)NCc1ccccc1Br | 0.3 |  |

Now from value to molecule, other results behind:

| Relative activity [2] | SMILES | other results |
| --- | --- | --- |
| 0.1 | C[C@H](NC(=O)Cc1cc(F)cc(F)c1)C(=O)N[C@@H](Cc1ccccc1)C(=O)NCc1ccc(F)cc1 |  |
| 0.6 | C[C@H](NC(=O)Cc1cc(F)cc(F)c1)C(=O)N[C@@H](Cc1ccccc1)C(=O)NCc1ccc(Cl)cc1 |  |
| 0.4 | COc1ccc(CNC(=O)[C@H](Cc2ccccc2)NC(=O)[C@H](C)NC(=O)Cc2cc(F)cc(F)c2)cc1 |  |
| 0.1 | C[C@H](NC(=O)Cc1cc(F)cc(F)c1)C(=O)N[C@@H](Cc1ccccc1)C(=O)NCc1ccccc1Cl |  |
| 0.6 | COC(=O)c1ccc(CNC(=O)[C@H](Cc2ccccc2)NC(=O)[C@H](C)NC(=O)Cc2cc(F)cc(F)c2)cc1 |  |
| 0.6 | C[C@H](NC(=O)Cc1cc(F)cc(F)c1)C(=O)N[C@@H](Cc1ccccc1)C(=O)NCc1ccc(Br)cc1 |  |
| 0.1 | C[C@H](NC(=O)Cc1cc(F)cc(F)c1)C(=O)N[C@@H](Cc1ccccc1)C(=O)NCc1cccc(Cl)c1 |  |
| 0.1 | C[C@H](NC(=O)Cc1cc(F)cc(F)c1)C(=O)N[C@@H](Cc1ccccc1)C(=O)NCc1cccc(Br)c1 |  |
